Measured values published in patent US20210115104A1, “AMYLIN ANALOGUES” (Zealand Pharma A/S, priority 2015, published 2021).
Where two headings read alike, the source gives them in different places. *1 amine or outer side, *2 acyl side, *3 side chain or, on linkers, in order; H or OH if unused. Where a SMILES comes first, the peptide text is derived from it. Bridges are numbered along the chain shown (N, C = ends). [ ]: non-standard residue; d: D form. The star is where a group is joined. C20 diacid = O=C(O)CCCCCCCCCCCCCCCCCCC(=O)*; γGlu = O=C(O)[C@H](CCC(=O)[*:2])N[*:1]; NMeI = CC[C@H](C)[C@H](NC)C(=O)O; Sar = CNCC(=O)O

Legend:
[1] = biological target: T1, human calcitonin receptor (hCTR2) (Homo sapiens, UniProt P30988); assay: hCTR2 cAMP assay (AlphaScreen) in COS7 cells; format: cell-based; conditions: cAMP induction, COS7 cells expressing hCTR2; Table 1; read-out: hCTR2 EC50
T1 construct: expressed in transfected cells
T1 sequence (P30988 25-474): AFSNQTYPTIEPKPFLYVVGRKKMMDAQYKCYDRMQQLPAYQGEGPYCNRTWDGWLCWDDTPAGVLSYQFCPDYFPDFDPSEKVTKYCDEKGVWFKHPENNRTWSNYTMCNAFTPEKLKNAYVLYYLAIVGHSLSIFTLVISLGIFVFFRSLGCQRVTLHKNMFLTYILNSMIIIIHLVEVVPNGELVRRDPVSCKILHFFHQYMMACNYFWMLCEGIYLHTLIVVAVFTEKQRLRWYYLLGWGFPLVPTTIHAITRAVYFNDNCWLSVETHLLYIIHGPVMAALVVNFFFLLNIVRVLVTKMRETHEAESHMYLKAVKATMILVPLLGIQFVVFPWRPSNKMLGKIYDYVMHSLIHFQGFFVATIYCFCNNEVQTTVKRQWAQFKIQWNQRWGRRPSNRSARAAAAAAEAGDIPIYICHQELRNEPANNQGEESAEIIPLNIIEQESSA
In short: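 cAMP induction, read by AlphaScreen after lysis, gives EC50 values via 4PL curve fitting. Peptides were applied at rising concentrations for 15 min at 37 °C, with IBMX and 0.1% casein in HEPES-buffered Tyrode pH 7.4, to COS7 cells (no endogenous RAMPs) stably expressing human CTR2.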

[2] = biological target: T2, human amylin receptor 3 (hAMYR3), hCTR2 co-expressed with hRAMP3 (Homo sapiens, UniProt O60896+P30988); assay: hAMYR3 cAMP assay (AlphaScreen) in COS7 cells; format: cell-based; conditions: cAMP induction, COS7 cells expressing hAMYR3; Table 1; read-out: hAMYR3 EC50
T2 construct: expressed in transfected cells
T2 sequence (P30988 25-474): T1 sequence (P30988 25-474)
T2 sequence (O60896 24-148 partner): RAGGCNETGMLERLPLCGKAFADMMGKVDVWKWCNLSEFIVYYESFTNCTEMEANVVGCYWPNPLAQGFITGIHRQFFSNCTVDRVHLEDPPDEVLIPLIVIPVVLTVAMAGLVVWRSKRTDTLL
In short: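 EC50 values derive from 4PL curve fits of cAMP (AlphaScreen) in lysates of RAMP-naive COS7 cells stably carrying hCTR2 plus hRAMP3. Peptide dilution series were applied for 15 min at 37 °C in pH 7.4 Tyrode buffer containing 100 µM IBMX and 0.1% casein.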

[3] = Assessment of solubility (turbidity absorbance at 325 nm); format: physicochemical; conditions: named as exception to solubility ≥1 mg/ml
Procedure: A stock solution of the test peptide (2 mg/ml; determined from the weighed amount of peptide) in demineralized water adjusted to pH 2.5 with HCl was prepared, and aliquots were diluted 1:1 in 100 mM acetate buffer (pH 4.0 and pH 5.0), 100 mM histidine buffer (pH 6.0 and pH 7.0) and 100 mM phosphate buffer (pH 6.0, pH 7.0 and pH7.5), respectively, and loaded in a standard flat-bottom, non-sterile 96-well UV Microplate. The absorbance of samples (single samples, n=1) at 280 and 325 nm was measured in an absorbance-based plate reader, which was preheated to ambient temperature (typically 25° C.). The turbidity absorbance criterion for a peptide solubility of ≥1 mg/ml was an absorbance at 325 nm of s 0.02 absorbance units (which is 5 to 6 times the standard deviation of 8 buffer samples in a plate).

EC50 [1]: 0.06 nM | EC50 [2]: 0.12 nM | solubility ([3]; pH 6.0, read-out: solubility at pH 6.0): < 1000 µg/mL | solubility ([3]; phosphate buffer, pH 7.5, read-out: solubility at pH 7.5): < 1000 µg/mL
SMILES: CC[C@H](C)[C@@H](C(=O)N[C@@H](CC(C)C)C(=O)N[C@@H](CO)C(=O)N[C@@H](CO)C(=O)N[C@H](C(=O)N[C@@H](CCC(=O)O)C(=O)N[C@H](C(=O)NCC(=O)N[C@@H](CO)C(=O)N[C@@H](CO)C(=O)N[C@H](C(=O)N1CCC[C@H]1C(N)=O)[C@@H](C)O)C(C)C)[C@@H](C)O)N(C)C(=O)[C@H](C)NC(=O)CN(C)C(=O)[C@H](Cc1ccccc1)NC(=O)[C@H](CO)NC(=O)[C@H](CO)NC(=O)[C@H](CCCNC(=N)N)NC(=O)[C@@H](NC(=O)[C@H](CC(C)C)NC(=O)[C@H](Cc1ccccc1)NC(=O)[C@H](Cc1c[nH]cn1)NC(=O)[C@H](C)NC(=O)[C@H](CC(C)C)NC(=O)[C@H](CCCNC(=N)N)NC(=O)[C@H](CCC(=O)O)NC(=O)[C@@H](NC(=O)[C@H](C)NC(=O)[C@@H]1CSSC[C@H](NC(=O)[C@H](CCCNC(=N)N)NC(=O)CC[C@H](NC(=O)CCCCCCCCCCCCCCCCCCC(=O)O)C(=O)O)C(=O)NCC(=O)N[C@@H]([C@@H](C)O)C(=O)N[C@@H](C)C(=O)N[C@@H]([C@@H](C)O)C(=O)N1)[C@@H](C)O)C(C)C [Compound 38, [19CD]-isoGlu-R-C( )-GTAT-C( )-ATERLAHFLVRSSF-Gly(Me)-A-Ile(Me)-LSSTEVGSSTP-NH2] ({C20 diacid-γGlu}-RCGTATCATERLAHFLVRSSF[Sar]A[NMeI]LSSTEVGSSTP-NH2; disulfide 2-7)
